For two compounds, mass density and refractive index results are on record in the NIST ThermoML archive (doi:10.1021/acs.jced.7b00023).

Series [1] is described as follows: wn = mass fraction of the nth substance listed. As to conditions: 101.3 kPa, Liquid, Vibrating tube method.
A short description of series [2]: refractive index (Na D-line) (dimensionless); wn = mass fraction of the nth substance listed. As to conditions: 101.3 kPa, Liquid, Standard Abbe refractometry.

± gives the expanded uncertainty stated by the source.

In the case of `[Cl-].[Na+]` [sodium chloride] + O, the mass density in series [1] (298.15 K, w1 = 0.263) stood at 1197.8 ± 3.1 kg/m3; in series [1] (308.15 K, w1 = 0.2666), 1193.6 ± 3.1 kg/m3; in series [1] (318.15 K, w1 = 0.2669), 1188.9 ± 3.1 kg/m3. Besides, the refractive index was found to be 1.3796 ± 0.002 in series [2] (298.15 K, w1 = 0.263); 1.3781 ± 0.002 in series [2] (308.15 K, w1 = 0.2666); 1.3766 ± 0.002 in series [2] (318.15 K, w1 = 0.2669).
Take `[Cl-].[Cs+]` [cesium chloride] + O: the mass density in series [1] (298.15 K, w1 = 0.6538) worked out at 1923.9 ± 3.6 kg/m3; in series [1] (308.15 K, w1 = 0.6693), 1946.1 ± 3.6 kg/m3; in series [1] (318.15 K, w1 = 0.6788), 1980.8 ± 3.7 kg/m3. Also, the refractive index is 1.4196 ± 0.002 in series [2] (298.15 K, w1 = 0.6538); 1.4204 ± 0.002 in series [2] (308.15 K, w1 = 0.6693); 1.4218 ± 0.002 in series [2] (318.15 K, w1 = 0.6788).
